Assay results as given in ChEMBL document CHEMBL4602732, “Optimizing Pyrazolopyrimidine Inhibitors of Calcium Dependent Protein Kinase 1 for Treatment of Acute and Chronic Toxoplasmosis” (J Med Chem, 2020).
Activity calls are given as the source filed them. No cut-off for these calls is given here.

Tests used:
[1] = test system: Toxoplasma gondii; assay: Antiparasitic activity against type 2 Toxoplasma gondii ME49 tachyzoites infected in HFF assessed as reduction in parasite growth; type: functional, organism-based
[2] = Protein binding in mouse brain assessed as unbound fraction; type: ADME, tissue-based
[3] = molecular target: Cytochrome P450 2C19 (Homo sapiens, UniProt P33261); assay: Inhibition of CYP2C19 in human liver microsomes using S-mephenytoin as substrate measured after 10 mins by LC-MS/MS analysis; type: ADME
Cytochrome P450 2C19, sequence (P33261 whole entry, the tested form may be a part): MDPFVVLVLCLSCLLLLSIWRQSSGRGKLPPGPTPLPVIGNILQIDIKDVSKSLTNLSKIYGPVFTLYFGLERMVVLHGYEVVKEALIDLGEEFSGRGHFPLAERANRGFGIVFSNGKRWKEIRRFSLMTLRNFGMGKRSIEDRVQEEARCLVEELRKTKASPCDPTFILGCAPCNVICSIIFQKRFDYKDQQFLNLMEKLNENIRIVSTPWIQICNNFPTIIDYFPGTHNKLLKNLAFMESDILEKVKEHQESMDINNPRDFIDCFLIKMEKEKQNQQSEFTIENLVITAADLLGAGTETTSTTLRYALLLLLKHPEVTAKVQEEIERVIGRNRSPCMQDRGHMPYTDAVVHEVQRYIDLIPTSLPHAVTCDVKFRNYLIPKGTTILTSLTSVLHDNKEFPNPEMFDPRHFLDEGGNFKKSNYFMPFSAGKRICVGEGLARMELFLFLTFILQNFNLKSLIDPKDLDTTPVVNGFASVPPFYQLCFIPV

[4] = molecular target: T1, ALK5 (TGF-beta receptor type-1) (Homo sapiens, UniProt P36897); assay: Inhibition of human […] N-terminal GST-tagged ALK5 (200 to 503 residues) expressed in baculovirus expression system at 1 uM by Lanthascreen assay relative to control
T1 sequence (P36897 whole entry): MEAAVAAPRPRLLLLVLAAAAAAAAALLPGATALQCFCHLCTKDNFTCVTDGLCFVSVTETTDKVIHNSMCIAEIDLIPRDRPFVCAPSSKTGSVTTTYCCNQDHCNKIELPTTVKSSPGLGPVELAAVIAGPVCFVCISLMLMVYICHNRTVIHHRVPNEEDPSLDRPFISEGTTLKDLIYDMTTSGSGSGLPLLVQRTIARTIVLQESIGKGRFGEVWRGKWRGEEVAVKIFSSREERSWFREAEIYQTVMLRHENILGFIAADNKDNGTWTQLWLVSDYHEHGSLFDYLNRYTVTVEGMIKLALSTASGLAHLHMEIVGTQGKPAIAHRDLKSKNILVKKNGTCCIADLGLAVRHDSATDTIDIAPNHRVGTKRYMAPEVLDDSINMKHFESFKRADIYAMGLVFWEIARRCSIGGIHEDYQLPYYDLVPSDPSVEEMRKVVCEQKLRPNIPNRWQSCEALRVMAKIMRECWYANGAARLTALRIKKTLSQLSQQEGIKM

[5] = test system: MDR1; assay: Efflux ratio of apparent permeability across basolateral to apical side over apical to basolateral side in MDCK2-MDR1 cells at 2 uM measured after 150 mins by LC-MS/MS analysis; type: ADME, cell-based, Canis lupus familiaris; details: dog, MDCK-MDR1
[6] = Kinetic solubility of the compound in pH 7.4 phosphate buffer measured after 24 hrs by UV-HPLC analysis; type: physicochemical; details: pH 7.4, 24 h
[7] = molecular target: T2, Alpha-2A adrenergic receptor (Homo sapiens, UniProt P08913); assay: Antagonist activity at recombinant human Gi/Go-coupled ADRA2A expressed in CHOK1 cells assessed as reduction in UK14304-induced inhibition of forskolin-stimulated cAMP accumulation; type: cell-based; details: cho-k1
T2 sequence (P08913 whole entry): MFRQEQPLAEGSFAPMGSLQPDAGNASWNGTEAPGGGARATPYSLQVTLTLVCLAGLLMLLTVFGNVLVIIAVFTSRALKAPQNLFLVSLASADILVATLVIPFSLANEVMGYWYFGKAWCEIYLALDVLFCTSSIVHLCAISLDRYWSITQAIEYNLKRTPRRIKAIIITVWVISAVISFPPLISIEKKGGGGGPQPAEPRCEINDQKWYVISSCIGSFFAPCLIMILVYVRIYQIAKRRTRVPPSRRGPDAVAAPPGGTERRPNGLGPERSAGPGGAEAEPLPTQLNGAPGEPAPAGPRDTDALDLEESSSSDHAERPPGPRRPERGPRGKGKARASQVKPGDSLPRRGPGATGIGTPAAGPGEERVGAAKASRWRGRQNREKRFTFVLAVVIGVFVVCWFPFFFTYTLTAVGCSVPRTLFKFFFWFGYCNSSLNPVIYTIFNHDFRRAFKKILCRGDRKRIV

[8] = Ratio of drug level in central nervous system to plasma in CD1 mouse at 10 mg/kg, po administered via gavage measured after 8 hrs by LC-MS/MS analysis; type: ADME, organism-based, CNS/Plasma; details: central nervous system and plasma
[9] = Time at which plasma concentration stays above in vitro EC50 for antiparasitic activity against 2F clone of type 1 Toxoplasma gondii RH tachyzoites expressing luciferase infected in HFF in CD1 mouse at 30 mg/kg, po; type: ADME, organism-based; details: in vivo
[10] = test system: Toxoplasma gondii; assay: Antiparasitic activity against type 1 Toxoplasma gondii RH tachyzoites infected in CD1 mouse assessed as reduction in parasite expansion at 60 mg/kg, po administered once daily via gavage for 7 days by bioluminescence assay; type: functional, organism-based
[11] = test system: Toxoplasma gondii; assay: Antiparasitic activity against type 1 Toxoplasma gondii RH tachyzoites infected in CD1 mouse assessed as reduction in parasite dissemination at 60 mg/kg, po administered once daily via gavage for 7 days by bioluminescence assay; type: functional, organism-based
[12] = test system: Toxoplasma gondii; assay: Antiparasitic activity against type 1 Toxoplasma gondii RH tachyzoites infected in CD1 mouse assessed as reduction in parasite dissemination at 30 mg/kg, po administered twice daily via gavage for 7 days by bioluminescence assay; type: functional, organism-based
[13] = test system: Toxoplasma gondii; assay: Antiparasitic activity against type 1 Toxoplasma gondii RH tachyzoites infected in CD1 mouse assessed as reduction in parasite dissemination at 15 mg/kg, po administered four times daily via gavage for 7 days by bioluminescence assay; type: functional, organism-based
[14] = test system: Toxoplasma gondii; assay: Antiparasitic activity against type 1 Toxoplasma gondii RH tachyzoites infected in CD1 mouse assessed as reduction in mouse death at 60 mg/kg, po administered once daily via gavage for 7 days by bioluminescence assay; type: functional, organism-based
[15] = test system: Toxoplasma gondii; assay: Antiparasitic activity against type 1 Toxoplasma gondii RH tachyzoites infected in CD1 mouse assessed as reduction in mouse death at 30 mg/kg, po administered twice daily via gavage for 7 days by bioluminescence assay; type: functional, organism-based
[16] = test system: Toxoplasma gondii; assay: Antiparasitic activity against type 1 Toxoplasma gondii RH tachyzoites infected in CD1 mouse assessed as reduction in mouse death at 15 mg/kg, po administered four times daily via gavage for 7 days by bioluminescence assay; type: functional, organism-based
[17] = test system: Toxoplasma gondii; assay: Antiparasitic activity against type 1 Toxoplasma gondii RH tachyzoites infected in CD1 mouse assessed as […] at 15 mg/kg, po administered four times daily via gavage for 7 days followed by lung and brain isolation on 15 days post-infection and co-culture with naive CD1 mouse; type: functional
[18] = test system: Toxoplasma gondii; assay: Protection against reactivation of type 2 Toxoplasma gondii ME49 infection in sulfadiazin-treated Ifngr1-/- CD1 mouse assessed as reduction in parasite infection at 60 mg/kg, po administered twice daily via gavage for 8 days measured up to 30 days by luciferase reporter gene based bioluminescence assay; type: functional, organism-based
[19] = test system: Toxoplasma gondii; assay: Protection against reactivation of type 2 Toxoplasma gondii ME49 infection in sulfadiazin-treated Ifngr1-/- CD1 mouse assessed as increase in weight gain at 60 mg/kg, po administered twice daily via gavage for 21 days measured up to 30 days; type: functional, organism-based
[20] = test system: Toxoplasma gondii; assay: Protection against reactivation of type 2 Toxoplasma gondii ME49 infection in sulfadiazin-treated Ifngr1-/- CD1 mouse assessed as reduction in serological conversion at 60 mg/kg, po administered twice daily via gavage for 21 days followed by brain isolation on 30 days post-infection and co-culture with Ifngr1-/- CD1 mouse; type: functional, organism-based

## Nc1ncnc2c1c(Oc1cc(C(F)(F)F)ccn1)nn2C1CC1
[1]
  EC50: 0.26 µM
[2]
  fraction unbound: 0.101
[3]
  EC50: 5.78 µM
[4]
  inhibition at 1 µM: > 50%
[5]
  efflux ratio at […], 2 µM: 0.64
[6]
  Kinetic_solubility: 191 µM
[7]
  inhibition (INH): 51%
[8]
  Kp at 8 h: 0.96
[9]
  T>EC50: 8 h
[10]
  Activity: Active
[11]
  Activity: Active
[12]
  Activity: Active
[13]
  Activity: Active
[14]
  Activity: Active
[15]
  Activity: Active
[16]
  Activity: Active
[17]
  survival at 15 mg/kg: 20%
[18]
  Activity: inactive
[19]
  Activity: Active
[20]
  Activity: Active
